Tests used:
Y397-FAK phosphorylation = settings: cited from earlier work
cell growth and survival = settings: cited from earlier work
Panc-1 cells = assay: Apoptosis assay (Hoechst staining), Panc-1; type: cell-based, human; settings: 48 hours
Description: (§1) Cell Viability Assay—The Cells were treated with peptides for 24 hours at different peptide concentrations. The 3-(4,5-dimethylthiazol-2-yl)-5-(3-carboxymethoxyphenyl)-2-(4-sulfophenyl)-2H-tetrazolium compound from Promega Viability kit (Madison, Ill.) was added, and the cells were incubated at 37° C. for 1-2 hours. The optical density on 96-plate was analyzed with a microplate reader at 490 nm to determine cell viability. In addition, cells were stained with trypan blue after 24 hours of treatment with Y15 and the percent of cells that stained positive were determined with a hemacytometer. Cell adhesion assay—The poly-L-Lysine or Collagen (5 μg/ml) coated 96-well plates were blocked with the blocking buffer (medium with 0.5% BSA) for 1 hour at 37 C. The cells were pre-treated with drugs for 3 hours and plated for adhesion at 4×10^5 cells. Cells were incubated at 37 C for 1 hour, fixed in 3.7% formaldehyde, washed in 0.1% BSA in PBS and stained with crystal violet (5 mg/ml in 2% ethanol) for 10 minutes. Then 2% SDS was added to the dried plated and OD at 590 nm was measured for detecting cell adhesion. […] Protein concentrations were determined using a Bio-Rad Kit. The boiled samples were loaded on Ready SDS-10% PAGE gels (Bio Rad, Inc) and used for Western blot analysis with the protein-specific antibody. […] Detachment Assay—Cells were plated with and without inhibitors for 24 hours, and detached and attached cells were counted in a hemocytometer. We calculated the percent of detachment by dividing the number of detached cells by the total number of cells. The percent of detached cells was calculated in three independent experiments. […] The percent of apoptotic cells was calculated as a ratio of apoptotic detached cells divided by the total number of cells in three independent experiments in several fields with the fluorescent microscope. For each experiment 300 cells per treatment were counted. […]

BT474 cells [1] = assay: Detachment assay, BT474; type: cell-based; settings: 24 hours
Description: Cell Viability Assay—The Cells were treated with peptides for 24 hours at different peptide concentrations. The 3-(4,5-dimethylthiazol-2-yl)-5-(3-carboxymethoxyphenyl)-2-(4-sulfophenyl)-2H-tetrazolium compound from Promega Viability kit (Madison, Ill.) was added, and the cells were incubated at 37° C. for 1-2 hours. The optical density on 96-plate was analyzed with a microplate reader at 490 nm to determine cell viability. In addition, cells were stained with trypan blue after 24 hours of treatment with Y15 and the percent of cells that stained positive were determined with a hemacytometer. Cell adhesion assay—The poly-L-Lysine or Collagen (5 μg/ml) coated 96-well plates were blocked with the blocking buffer (medium with 0.5% BSA) for 1 hour at 37 C. The cells were pre-treated with drugs for 3 hours and plated for adhesion at 4×10^5 cells. Cells were incubated at 37 C for 1 hour, fixed in 3.7% formaldehyde, washed in 0.1% BSA in PBS and stained with crystal violet (5 mg/ml in 2% ethanol) for 10 minutes. Then 2% SDS was added to the dried plated and OD at 590 nm was measured for detecting cell adhesion. Western Blotting—Cells or homogenized tumor samples were washed twice with cold 1×PBS and lysed on ice for 30 minutes in a buffer containing: 50 mM Tris-HCl (pH 7.5), 150 mM NaCl, 1% Triton-X, 0.5% NaDOC, 0.1% SDS, 5 mM EDTA, 50 mM NaF, 1 mM NaVO3, 10% glycerol and protease inhibitors: 10 μg/ml leupeptin, 10 μg/ml PMSF and 1 μg/ml aprotinin. The lysates were cleared by centrifugation at 10,000 rpm for 30 minutes at 4° C. Protein concentrations were determined using a Bio-Rad Kit. The boiled samples were loaded on Ready SDS-10% PAGE gels (Bio Rad, Inc) and used for Western blot analysis with the protein-specific antibody. Immunoblots were developed with chemiluminescence Renaissance reagent (NEN Life Science Products, Inc). Immunoprecipitation. Immunoprecipitation was performed according to the standard protocol. In brief, the pre-cleared lysates with equal amount of protein were incubated with 1 μg of primary antibody and 30 μl A/G agarose beads overnight at 4° C. The precipitates were washed with lysis buffer three times and re-suspended in 2× Laemmli buffer. The boiled samples were used for Western blotting, as described above. Detachment Assay—Cells were plated with and without inhibitors for 24 hours, and detached and attached cells were counted in a hemocytometer. We calculated the percent of detachment by dividing the number of detached cells by the total number of cells. The percent of detached cells was calculated in three independent experiments. Apoptosis Assay. […] The percent of apoptotic cells was calculated as a ratio of apoptotic detached cells divided by the total number of cells in three independent experiments in several fields with the fluorescent microscope. For each experiment 300 cells per treatment were counted. In vitro Kinase Assay—10 μCi of [γ-^32P]-ATP in a kinase buffer (20 mM HEPES, pH 7.4, 5 mM MgCl2, 5 mM MnCl2, 0.1 mM Na3VO4 with 0.1 μg of purified FAK protein were incubated in a kinase buffer with 10 μCi of [γ-^32P]-ATP. The kinase reaction was performed for 5 minutes at room temperature and stopped by addition of 2× Laemmli buffer. Proteins were separated on a Ready SDS-10% PAGE gel, and the phosphorylated enolase was visualized by autoradiography. KinaseProfiler screening—Kinase specificity screening was performed with KinaseProfiler™ Service (Millipore) available on http://www.millipore.com/drugdiscovery/dd3/KinaseProfiler. […]

FAK = target: T1, FAK (Homo sapiens, UniProt Q05397); assay: In vitro kinase assay with purified recombinant FAK; type: biochemical; settings: positive control
T1 construct: made in house; host or cells: Baculovirus system
T1 sequence (Q05397 whole entry): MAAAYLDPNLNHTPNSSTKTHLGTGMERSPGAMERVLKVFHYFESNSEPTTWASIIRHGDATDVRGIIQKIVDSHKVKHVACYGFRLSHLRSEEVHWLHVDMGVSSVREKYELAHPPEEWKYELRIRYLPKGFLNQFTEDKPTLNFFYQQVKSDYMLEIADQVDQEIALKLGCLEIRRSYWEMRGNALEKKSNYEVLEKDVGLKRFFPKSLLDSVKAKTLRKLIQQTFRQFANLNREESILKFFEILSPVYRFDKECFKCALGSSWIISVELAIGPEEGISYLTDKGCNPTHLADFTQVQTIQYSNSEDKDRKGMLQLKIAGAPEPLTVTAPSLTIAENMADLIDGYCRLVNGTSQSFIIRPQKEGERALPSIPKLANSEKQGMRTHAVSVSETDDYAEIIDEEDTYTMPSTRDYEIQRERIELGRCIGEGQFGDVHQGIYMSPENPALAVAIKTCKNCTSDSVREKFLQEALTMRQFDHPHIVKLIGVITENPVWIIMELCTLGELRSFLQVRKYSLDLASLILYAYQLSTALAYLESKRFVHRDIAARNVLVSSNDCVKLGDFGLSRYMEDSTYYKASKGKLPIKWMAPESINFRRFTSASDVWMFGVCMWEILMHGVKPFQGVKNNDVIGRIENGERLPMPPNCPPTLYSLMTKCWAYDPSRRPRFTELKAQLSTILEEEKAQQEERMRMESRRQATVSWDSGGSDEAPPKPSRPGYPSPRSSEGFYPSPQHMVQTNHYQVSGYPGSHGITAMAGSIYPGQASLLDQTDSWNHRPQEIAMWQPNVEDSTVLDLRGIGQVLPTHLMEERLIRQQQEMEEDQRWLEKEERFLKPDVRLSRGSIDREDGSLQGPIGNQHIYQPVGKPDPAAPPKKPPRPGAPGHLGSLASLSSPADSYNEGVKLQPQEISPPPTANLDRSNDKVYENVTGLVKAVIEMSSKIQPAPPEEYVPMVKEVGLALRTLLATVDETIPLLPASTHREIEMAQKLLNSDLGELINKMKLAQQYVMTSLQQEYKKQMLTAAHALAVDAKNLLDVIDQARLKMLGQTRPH
Description: (§2) Cell Viability Assay—The Cells were treated with peptides for 24 hours at different peptide concentrations. The 3-(4,5-dimethylthiazol-2-yl)-5-(3-carboxymethoxyphenyl)-2-(4-sulfophenyl)-2H-tetrazolium compound from Promega Viability kit (Madison, Ill.) was added, and the cells were incubated at 37° C. for 1-2 hours. The optical density on 96-plate was analyzed with a microplate reader at 490 nm to determine cell viability. In addition, cells were stained with trypan blue after 24 hours of treatment with Y15 and the percent of cells that stained positive were determined with a hemacytometer. […] Then 2% SDS was added to the dried plated and OD at 590 nm was measured for detecting cell adhesion. […] Protein concentrations were determined using a Bio-Rad Kit. The boiled samples were loaded on Ready SDS-10% PAGE gels (Bio Rad, Inc) and used for Western blot analysis with the protein-specific antibody. […] Detachment Assay—Cells were plated with and without inhibitors for 24 hours, and detached and attached cells were counted in a hemocytometer. We calculated the percent of detachment by dividing the number of detached cells by the total number of cells. The percent of detached cells was calculated in three independent experiments. […] For each experiment 300 cells per treatment were counted. […]

[2] = system: Y397 phosphorylation of FAK; assay: Western blotting with Y397 FAK antibody, BT474 cells; type: cell-based; settings: 100 μM
Description: Cell Viability Assay—The Cells were treated with peptides for 24 hours at different peptide concentrations. The 3-(4,5-dimethylthiazol-2-yl)-5-(3-carboxymethoxyphenyl)-2-(4-sulfophenyl)-2H-tetrazolium compound from Promega Viability kit (Madison, Ill.) was added, and the cells were incubated at 37° C. for 1-2 hours. The optical density on 96-plate was analyzed with a microplate reader at 490 nm to determine cell viability. In addition, cells were stained with trypan blue after 24 hours of treatment with Y15 and the percent of cells that stained positive were determined with a hemacytometer. Cell adhesion assay—The poly-L-Lysine or Collagen (5 μg/ml) coated 96-well plates were blocked with the blocking buffer (medium with 0.5% BSA) for 1 hour at 37 C. The cells were pre-treated with drugs for 3 hours and plated for adhesion at 4×10^5 cells. Cells were incubated at 37 C for 1 hour, fixed in 3.7% formaldehyde, washed in 0.1% BSA in PBS and stained with crystal violet (5 mg/ml in 2% ethanol) for 10 minutes. Then 2% SDS was added to the dried plated and OD at 590 nm was measured for detecting cell adhesion. Western Blotting—Cells or homogenized tumor samples were washed twice with cold 1×PBS and lysed on ice for 30 minutes in a buffer containing: 50 mM Tris-HCl (pH 7.5), 150 mM NaCl, 1% Triton-X, 0.5% NaDOC, 0.1% SDS, 5 mM EDTA, 50 mM NaF, 1 mM NaVO3, 10% glycerol and protease inhibitors: 10 μg/ml leupeptin, 10 μg/ml PMSF and 1 μg/ml aprotinin. The lysates were cleared by centrifugation at 10,000 rpm for 30 minutes at 4° C. Protein concentrations were determined using a Bio-Rad Kit. The boiled samples were loaded on Ready SDS-10% PAGE gels (Bio Rad, Inc) and used for Western blot analysis with the protein-specific antibody. Immunoblots were developed with chemiluminescence Renaissance reagent (NEN Life Science Products, Inc). Immunoprecipitation. Immunoprecipitation was performed according to the standard protocol. In brief, the pre-cleared lysates with equal amount of protein were incubated with 1 μg of primary antibody and 30 μl A/G agarose beads overnight at 4° C. The precipitates were washed with lysis buffer three times and re-suspended in 2× Laemmli buffer. The boiled samples were used for Western blotting, as described above. Detachment Assay—Cells were plated with and without inhibitors for 24 hours, and detached and attached cells were counted in a hemocytometer. We calculated the percent of detachment by dividing the number of detached cells by the total number of cells. The percent of detached cells was calculated in three independent experiments. Apoptosis Assay. Detached cells were collected and fixed in 3.7% formaldehyde in 1×PBS solution for the apoptosis assay. Detection of apoptosis was done with Hoechst 33342 staining. The percent of apoptotic cells was calculated as a ratio of apoptotic detached cells divided by the total number of cells in three independent experiments in several fields with the fluorescent microscope. For each experiment 300 cells per treatment were counted. In vitro Kinase Assay—10 μCi of [γ-^32P]-ATP in a kinase buffer (20 mM HEPES, pH 7.4, 5 mM MgCl2, 5 mM MnCl2, 0.1 mM Na3VO4 with 0.1 μg of purified FAK protein were incubated in a kinase buffer with 10 μCi of [γ-^32P]-ATP. The kinase reaction was performed for 5 minutes at room temperature and stopped by addition of 2× Laemmli buffer. Proteins were separated on a Ready SDS-10% PAGE gel, and the phosphorylated enolase was visualized by autoradiography. KinaseProfiler screening—Kinase specificity screening was performed with KinaseProfiler™ Service (Millipore) available on http://www.millipore.com/drugdiscovery/dd3/KinaseProfiler. The screening was performed with 1 μM Y15, 10 μM ATP and kinase substrates on 9 recombinant kinases according to Millipore protocol. Tumor Growth in Nude Mice—Female nude mice, 6 weeks old, were purchased from Harlan Laboratory. […]

BT474 cells [3] = assay: Apoptosis assay (Hoechst staining), BT474; type: cell-based
Description: as §1, with “counted. In vitro Kinase Assay—10 μCi of [γ-^32P]-ATP in a kinase buffer (20 mM HEPES, pH 7.4, 5 mM MgCl2, 5 mM MnCl2, 0.1 mM Na3VO4 with 0.1 μg of purified FAK protein were incubated in a kinase buffer with 10 μCi of [γ-^32P]-ATP. The kinase reaction was performed for 5 minutes at room temperature and stopped by addition of 2× Laemmli buffer. Proteins were separated on a Ready SDS-10% PAGE gel, and the phosphorylated enolase was visualized by autoradiography. KinaseProfiler screening—Kinase specificity screening was performed with KinaseProfiler™ Service (Millipore) available on http://www.millipore.com/drugdiscovery/dd3/KinaseProfiler.” for “counted.”

IGFR kinase = IGFR kinase (Homo sapiens, UniProt P08069); settings: cited from earlier work
Chain of IGFR kinase (P08069 31-1367): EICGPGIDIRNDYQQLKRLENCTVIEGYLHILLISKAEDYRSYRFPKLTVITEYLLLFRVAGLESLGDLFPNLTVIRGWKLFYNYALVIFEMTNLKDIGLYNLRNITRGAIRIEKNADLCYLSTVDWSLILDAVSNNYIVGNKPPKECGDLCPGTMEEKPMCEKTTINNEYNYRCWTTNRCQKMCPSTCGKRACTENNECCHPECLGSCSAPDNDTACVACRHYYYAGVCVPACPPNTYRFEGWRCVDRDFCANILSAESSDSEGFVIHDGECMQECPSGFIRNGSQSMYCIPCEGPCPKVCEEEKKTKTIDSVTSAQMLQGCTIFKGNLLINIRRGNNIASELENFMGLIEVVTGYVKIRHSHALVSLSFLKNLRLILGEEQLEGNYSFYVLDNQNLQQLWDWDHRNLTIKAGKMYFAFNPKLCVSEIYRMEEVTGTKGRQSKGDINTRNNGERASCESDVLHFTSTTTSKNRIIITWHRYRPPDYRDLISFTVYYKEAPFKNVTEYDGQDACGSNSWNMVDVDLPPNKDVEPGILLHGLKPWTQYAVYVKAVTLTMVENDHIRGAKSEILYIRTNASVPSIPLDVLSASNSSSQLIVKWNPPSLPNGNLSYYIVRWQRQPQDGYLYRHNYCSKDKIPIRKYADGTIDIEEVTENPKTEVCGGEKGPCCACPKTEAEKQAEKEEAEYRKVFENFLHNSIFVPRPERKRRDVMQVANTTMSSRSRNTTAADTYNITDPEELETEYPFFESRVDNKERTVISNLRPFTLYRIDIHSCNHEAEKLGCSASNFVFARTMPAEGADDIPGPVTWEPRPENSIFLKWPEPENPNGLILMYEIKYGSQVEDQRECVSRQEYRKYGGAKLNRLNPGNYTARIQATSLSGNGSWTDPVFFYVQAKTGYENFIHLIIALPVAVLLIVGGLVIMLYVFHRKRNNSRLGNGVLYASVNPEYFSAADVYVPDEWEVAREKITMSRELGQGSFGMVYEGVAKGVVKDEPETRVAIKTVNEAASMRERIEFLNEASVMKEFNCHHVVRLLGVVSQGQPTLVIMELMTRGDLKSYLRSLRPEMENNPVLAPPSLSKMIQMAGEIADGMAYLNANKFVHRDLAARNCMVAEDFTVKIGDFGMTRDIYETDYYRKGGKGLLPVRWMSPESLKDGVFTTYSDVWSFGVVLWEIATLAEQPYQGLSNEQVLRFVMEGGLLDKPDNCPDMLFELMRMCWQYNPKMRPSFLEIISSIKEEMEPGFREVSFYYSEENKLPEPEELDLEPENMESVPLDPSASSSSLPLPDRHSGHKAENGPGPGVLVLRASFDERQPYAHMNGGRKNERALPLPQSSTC

glioma and ovarian tumor = settings: cited from earlier work
Panc-1 tumor cells = assay: Panc-1 subcutaneous tumor growth in nude mice; type: in vivo; settings: 30 mg/kg each, daily intraperitoneal
Description: as §2

caspase-3 = assay: Caspase-3 immunohistochemistry of Panc-1 tumors; type: in vivo, mice; settings: 30 mg/kg, no significant increase
Description: as §2

Compound: CS(=O)(=O)c1cccc(CNc2nc(Nc3ccc4c(c3)CCC(=O)N4)ncc2C(F)(F)F)c1 [PF-573,228]
- Y397-FAK phosphorylation (Y397-FAK phosphorylation): effectively blocked Y397-FAK phosphorylation
- cell growth and survival in vitro (cell growth and survival): did not inhibit cell growth and survival in vitro

Compound: CNC(=O)c1ccccc1Nc1nc(Nc2ccc(N3CCOCC3)cc2OC)ncc1Cl [TAE226, reference compound]
- level of apoptosis compared to similar doses of Y15 (Panc-1 cells): slightly higher level of apoptosis
- detachment (BT474 cells [1]; 10 μM): 30%
- detachment (BT474 cells [1]; 50 μM): > 80%
- FAK autophosphorylation activity (FAK): directly blocked autophosphorylation activity of FAK
- Y397-FAK phosphorylation (Y397-FAK phosphorylation): effectively blocked Y397-FAK phosphorylation
- total FAK level [2]: down-regulated total FAK
- Y397 phosphorylation of FAK ([2]; 24 hours): completely blocked Y397 phosphorylation
- apoptosis (BT474 cells [3]; 10 μM): 35%
- apoptosis (BT474 cells [3]; 20 μM): 69%
- IGFR kinase inhibition (IGFR kinase): inhibited IGFR kinase
- tumor growth in ovarian tumor model (glioma and ovarian tumor; 30 mg/kg, alone): not so effective
- tumor growth in vivo (glioma and ovarian tumor): inhibited glioma and ovarian tumor growth in vivo

Compound: Nc1ccn([C@@H]2O[C@H](CO)[C@@H](O)C2(F)F)c(=O)n1 [gemcitabine, reference compound]
- tumor growth (Panc-1 tumor cells): inhibited tumor growth
- apoptotic cells in tumors (caspase-3 staining) (caspase-3): 2%
